From patent US7795261B2, “Substituted 1-piperidin-4-yl-4-pyrrolidin-3-yl-piperazine derivatives and their use as neurokinin antagonists” (Janssen Pharmaceutica NV, priority 2002, dated 2010)

What was measured:
Type in all cases: cell-based
NK3 = target: T1, NK3 (Homo sapiens, UniProt P29371); experiment: Signal transduction (ST), intracellular Ca++ (FLIPR), NK3; settings: read-out: pIC50 NK3 (converted)
T1 sequence (P29371 1-465): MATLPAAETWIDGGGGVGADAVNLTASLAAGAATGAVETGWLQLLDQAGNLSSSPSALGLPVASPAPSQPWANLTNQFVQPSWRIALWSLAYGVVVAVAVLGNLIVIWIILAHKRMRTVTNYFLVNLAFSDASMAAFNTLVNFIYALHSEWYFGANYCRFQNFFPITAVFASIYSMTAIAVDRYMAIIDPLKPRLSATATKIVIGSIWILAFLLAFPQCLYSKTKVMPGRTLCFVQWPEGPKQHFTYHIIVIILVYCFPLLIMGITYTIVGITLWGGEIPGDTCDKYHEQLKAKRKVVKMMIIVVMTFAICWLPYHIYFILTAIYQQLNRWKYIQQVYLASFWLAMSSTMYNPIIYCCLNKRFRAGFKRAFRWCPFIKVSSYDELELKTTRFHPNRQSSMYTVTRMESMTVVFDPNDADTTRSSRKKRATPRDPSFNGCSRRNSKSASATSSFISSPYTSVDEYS

NK1 = NK1 (Homo sapiens, UniProt P25103); experiment: Signal transduction (ST), intracellular Ca++ (FLIPR), NK1 antagonistic activity; settings: read-out: pIC50 NK1 (converted)
NK1, sequence (P25103 whole entry): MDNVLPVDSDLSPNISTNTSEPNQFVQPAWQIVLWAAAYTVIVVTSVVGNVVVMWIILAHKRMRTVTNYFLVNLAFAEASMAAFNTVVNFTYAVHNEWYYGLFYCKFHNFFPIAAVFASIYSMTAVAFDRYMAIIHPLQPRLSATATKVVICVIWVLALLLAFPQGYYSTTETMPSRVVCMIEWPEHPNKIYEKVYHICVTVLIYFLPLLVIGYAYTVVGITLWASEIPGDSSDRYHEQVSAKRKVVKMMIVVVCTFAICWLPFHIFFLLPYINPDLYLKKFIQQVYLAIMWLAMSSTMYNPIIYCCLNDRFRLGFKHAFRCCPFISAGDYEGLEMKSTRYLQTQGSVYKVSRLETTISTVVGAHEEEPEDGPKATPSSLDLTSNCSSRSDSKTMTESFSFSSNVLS
In short: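 Antagonist IC50 was fitted by non-linear regression of peak intracellular Ca++ signals measured on FLIPR after agonist challenge. Beforehand, Fluo3-loaded confluent cells received antagonists over a concentration range for 20 min at room temperature in Ca++ Krebs buffer, pH 7.4.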

NK2 = target: T2, NK2 (Homo sapiens, UniProt P21452); experiment: Signal transduction (ST), intracellular Ca++ (FLIPR), NK2; settings: read-out: pIC50 NK2 (converted)
T2 sequence (P21452 1-398): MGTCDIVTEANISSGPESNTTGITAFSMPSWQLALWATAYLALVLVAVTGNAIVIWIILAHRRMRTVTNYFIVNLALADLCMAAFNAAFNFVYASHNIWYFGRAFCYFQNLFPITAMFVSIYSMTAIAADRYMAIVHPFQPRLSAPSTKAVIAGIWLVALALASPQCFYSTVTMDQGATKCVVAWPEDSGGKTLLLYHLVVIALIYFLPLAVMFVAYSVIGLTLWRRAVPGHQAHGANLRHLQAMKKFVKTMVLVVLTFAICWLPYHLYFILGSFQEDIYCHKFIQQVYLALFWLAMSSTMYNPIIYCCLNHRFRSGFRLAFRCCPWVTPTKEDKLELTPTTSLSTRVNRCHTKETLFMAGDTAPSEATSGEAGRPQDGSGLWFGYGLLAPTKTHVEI

SMILES	IC50 (NK3)	IC50 (NK1)	IC50 (NK2)
N#CN=C(N1CCCC1)N1CCC(N2CCN([C@H]3CCN(C(=O)c4cc(C(F)(F)F)cc(C(F)(F)F)c4)[C@H](Cc4ccccc4)C3)CC2)C1 (stereo partly drawn) [Compound 302]	1000 nM	7.94 nM	2510 nM
O=C(c1cc(C(F)(F)F)cc(C(F)(F)F)c1)N1CC[C@H](N2CCN(C3CCN(S(=O)(=O)c4ccc(O)cc4)C3)CC2)C[C@H]1Cc1ccccc1 (stereo partly drawn) [Compound 303]	3160 nM	6.31 nM	631 nM
CN(C(=O)OC(C)(C)C)C(C)(C)C(=O)N1CCC(N2CCN(C3CCN(C(=O)c4cc(C(F)(F)F)cc(C(F)(F)F)c4)C(Cc4ccccc4)C3)CC2)C1 (stereo not drawn) [Compound 304]	158 nM	10 nM	1580 nM
O=C(c1cc(C(F)(F)F)cc(C(F)(F)F)c1)N1CC[C@H](N2CCN(C3CCN(S(=O)(=O)c4ccccc4O)C3)CC2)C[C@H]1Cc1ccccc1 (stereo partly drawn) [Compound 307]	1260 nM	15.8 nM	1260 nM
O=C(c1cc(C(F)(F)F)cc(C(F)(F)F)c1)N1CC[C@H](N2CCN(C3CCN(S(=O)(=O)c4sccc4CO)C3)CC2)C[C@H]1Cc1ccccc1 (stereo partly drawn) [Compound 308]	251 nM	7.94 nM	200 nM
CN(C(=O)C1CC1)C(C)(C)C(=O)N1CCC(N2CCN(C3CCN(C(=O)c4cc(C(F)(F)F)cc(C(F)(F)F)c4)C(Cc4ccccc4)C3)CC2)C1 (stereo not drawn) [Compound 310]	3980 nM	7.94 nM	2000 nM
O=C(C1CC1)N1CC[C@H](N2CCN([C@H]3CCN(C(=O)c4cc(C(F)(F)F)cc(C(F)(F)F)c4)[C@H](Cc4ccc(Cl)c(Cl)c4)C3)CC2)C1 [Compound 312]	501 nM	7.94 nM	1580 nM
CC(C)(C)C(=O)N1CC[C@H](N2CCN([C@H]3CCN(C(=O)c4cc(C(F)(F)F)cc(C(F)(F)F)c4)[C@H](Cc4ccc(Cl)c(Cl)c4)C3)CC2)C1 [Compound 313]	251 nM	3.98 nM	631 nM
O=C(C1CCCCC1)N1CC[C@H](N2CCN([C@H]3CCN(C(=O)c4cc(C(F)(F)F)cc(C(F)(F)F)c4)[C@H](Cc4ccc(Cl)c(Cl)c4)C3)CC2)C1 [Compound 314]	501 nM	15.8 nM	1260 nM
O=C(c1ccccc1Cl)N1CC[C@H](N2CCN([C@H]3CCN(C(=O)c4cc(C(F)(F)F)cc(C(F)(F)F)c4)[C@H](Cc4ccc(Cl)c(Cl)c4)C3)CC2)C1 [Compound 315]	631 nM	5.01 nM	501 nM
O=C(c1c(Cl)cccc1Cl)N1CC[C@H](N2CCN([C@H]3CCN(C(=O)c4cc(C(F)(F)F)cc(C(F)(F)F)c4)[C@H](Cc4ccc(Cl)c(Cl)c4)C3)CC2)C1 [Compound 316]	631 nM	20 nM	794 nM
O=C(c1ccco1)N1CC[C@H](N2CCN([C@H]3CCN(C(=O)c4cc(C(F)(F)F)cc(C(F)(F)F)c4)[C@H](Cc4ccc(Cl)c(Cl)c4)C3)CC2)C1 [Compound 317]	631 nM	10 nM	398 nM
O=C(c1cccs1)N1CC[C@H](N2CCN([C@H]3CCN(C(=O)c4cc(C(F)(F)F)cc(C(F)(F)F)c4)[C@H](Cc4ccc(Cl)c(Cl)c4)C3)CC2)C1 [Compound 318]	398 nM	15.8 nM	316 nM
O=C(c1cc(C(F)(F)F)cc(C(F)(F)F)c1)N1CC[C@H](N2CCN(C3CCN(C(CO)c4cccs4)C3)CC2)C[C@H]1Cc1ccccc1 (stereo partly drawn) [Compound 319]	3160 nM	31.6 nM	5010 nM
O=C(c1cc(C(F)(F)F)cc(C(F)(F)F)c1)N1CCC(N2CCN(C3CCN(Cc4ccccc4)C3)CC2)CC1Cc1cc(Cl)cc(Cl)c1 (stereo not drawn) [Compound 320]	2510 nM	251 nM	3980 nM
O=C(c1cccs1)N1CC[C@@H](N2CCN([C@H]3CCN(C(=O)c4cc(C(F)(F)F)cc(C(F)(F)F)c4)[C@H](Cc4ccccc4)C3)CC2)C1 [Compound 321]	251 nM	12.6 nM	3160 nM
